Test results reported in paper PMC8457330 (Journal of medicinal chemistry, 2021).

Experiments:
SARS-CoV = settings: read-out: SARS-CoV antiviral EC50; VeroE6 cells; cited from earlier work
SARS-CoV 3CLpro = SARS-CoV 3CLpro (Severe acute respiratory syndrome coronavirus, UniProt P0C6X7); assay: biochemical
SARS-CoV-2 = assay: Antiviral activity, quantitative VeroE6 cell-based assay with RNA-qPCR; settings: VeroE6 cells, EC50 ratio versus compound 1
SARS-CoV-2 3CLpro = SARS-CoV-2 3CLpro (Severe acute respiratory syndrome coronavirus 2, UniProt P0DTD1); format: biochemical

Row | Compound | IC50 (SARS-CoV 3CLpro) | fold reduction in antiviral activity compared to 1 (SARS-CoV-2) | also measured
1 | O=C(Oc1cncc(Cl)c1)c1cccc2[nH]ccc12 [Compound 1, 5-chloropyridin-3-yl 1H-indole-4-carboxylate] |  |  | EC50 (SARS-CoV): 6900 nM
2 | O=C(Oc1cncc(Cl)c1)c1cccc2c1CCN2 [Compound 2, 5-chloropyridin-3-yl indoline-4-carboxylate] | 190 nM | 5 fold | 
3 | O=C(Oc1cncc(Cl)c1)c1ccc2[nH]ccc2c1 [Compound 7a, 5-chloropyridin-3-yl 1H-indole-5-carboxylate] | 405 nM |  | 
4 | C=CCn1ccc2c(C(=O)Oc3cncc(Cl)c3)cccc21 [Compound 7d, 5-chloropyridin-3-yl 1-allyl-1H-indole-4-carboxylate] |  | ~5 fold | fold improvement in inhibitory potency over 1 (SARS-CoV-2 3CLpro; versus compound 1): over 5 fold
5 | C=CCc1cn(CC=C)c2cccc(C(=O)Oc3cncc(Cl)c3)c12 [Compound 7e, 5-chloropyridin-3-yl 1,3-diallyl-1H-indole-4-carboxylate] |  |  | fold reduction in enzyme inhibitory activity (SARS-CoV-2 3CLpro; bis-allyl 7e versus 7d): 5 fold
